From patent US5162336A, “Tetrahydro-pyrido-indoles as cholecystokinin and gastrin antagonists” (Rhone-Poulenc Rorer Pharmaceuticals Inc., priority 1990, dated 1992)

biological target: T1, CCK-A receptor (Rattus norvegicus, UniProt P30551); assay: CCK-A receptor binding assay (displacement of 3H-L-364,718 from rat pancreas membranes); parameters: species or system Sprague-Dawley rat; conditions: 3H-L-364,718 0.2 nM, 37° C., 30 min, read-out: In vitro Binding Data IC50 CCK
T1 construct: from tissue; host or cells: pancreas membranes of Sprague-Dawley rat
T1 sequence (P30551 1-444): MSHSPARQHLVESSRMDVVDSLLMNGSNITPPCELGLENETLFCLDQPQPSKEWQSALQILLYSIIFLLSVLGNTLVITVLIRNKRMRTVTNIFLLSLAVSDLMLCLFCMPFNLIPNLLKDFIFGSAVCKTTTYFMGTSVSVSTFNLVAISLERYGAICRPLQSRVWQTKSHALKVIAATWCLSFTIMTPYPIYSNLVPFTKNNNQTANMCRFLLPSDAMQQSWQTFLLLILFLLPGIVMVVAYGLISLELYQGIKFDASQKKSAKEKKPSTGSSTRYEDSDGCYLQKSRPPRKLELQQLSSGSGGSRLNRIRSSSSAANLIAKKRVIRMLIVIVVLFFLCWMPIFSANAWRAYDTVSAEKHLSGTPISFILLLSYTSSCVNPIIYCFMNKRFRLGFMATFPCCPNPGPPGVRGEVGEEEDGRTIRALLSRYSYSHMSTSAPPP
Experimental: Washer Buffer (for use with Brandel Cell Harvester):
30 liters of 50 mM Tris, ph 7.7: Dissolve 181.7 g. Tris base in 4 1. deionized water at room temperature. Adjust pH to 7.7 with 6 N HCl and Q.S. to 30 1.
50 mM Tris-Cl, 5 mM MgCl2, 5 mM dithio-thretiol, 0.14 mg/ml bacitracin, and 2 mg/ml bovine serum albumin.
1 liter of 5X stock buffer:
30.28 g. Tris base per 800 ml D.I. water 5.09 g. MgCl2 6 H2 O, pH to 7.7 at room temperature with 6N HCl and Q.S. 1 liter, store at 4° C.
250 ml working buffer kept on ice:
50 ml of 5X stock buffer 0.1928 g. dithiothretiol (5 mM), 35 mg bacitracin (0.14 mg/ml), and 0.5 g. BSA (2mg/ml).
Unlabeled L-364,718(nonpeptide ligand):
Unlabeled L-364,718 (300 nM final concentration) is used to define nonspecific binding. A 3 mM solution is made in absolute ethanol and stored in a scintillation vial at -70° C. Aliquots are diluted 100-fold in the assay.
A Sprague-Dawley rat is sacrificed by asphyxiation with carbon dioxide and the pancreas removed. The tissue is immersed in cold wash buffer and carefully trimmed of fat, connective tissue, blood vessels, blotted and weighed. The tissue is homogenized in a Sorvall SS-34 centrifuge tube in 50 volumes of wash buffer using a Polytron at setting 7 for 15 seconds. The tissue is centrifuged (Sorvall SS-34) at 19,000 rpm for 10 min. The supernatant is poured off and the pellet resuspended in sufficient buffer to obtain a contraction of 40 mg tissue wet weight/ml. Separate aliquots (2,3ml) are placed in each of 8 centrifuge tubes and centrifuged as before. The supernatants are poured off and the pellets stored at -70° C. Stored pellets are sufficient for the assay of 160 tubes and are stable for 1-2 months.
During the assay the stored membranes are resuspended in 40 ml of assay buffer by scraping the pellet off the wall of the centrifuge tube and washing it into a teflon-glass homogenizer. Membranes are resuspended by 5 passes with the teflon pestle and the membranes stored on ice until ready for use.
Preparation of Compounds:
Compounds are prepared in DMSO (dimethyl sulfoxide) or in assay buffer. The majority of structures active as CCK antagonists generally require DMSO for complete solubility. Approximately 2-3 mg of compound is weighed directly into a 13×100 mm test tube and sufficient DMSO added to obtain a working stock solution at a concentration 100 fold greater than the highest concentration being tested in the assay. A total of 10 μl of each concentration of drug is added into a final volume of 1 ml to yield a 100 fold dilution of the, working stock solution. Control binding tubes ("totals and nonspecifics") are also treated with 10 μl DMSO.
^3 H-L-364,718 is obtained from New England Nuclear (Cat. #971) and is used as supplied. The final assay concentration of ^3 H-L-364,718 in assay buffer should be 0.2 nM in a final assay volume of 1 ml. ^3 H-L-364,718 (0.2 pmol) is added into the assay in a volume of 25 μl (8 nM working stock solution). The required dilution (usually>1000 fold) is obtained by dividing the working stock concentration into the concentration of the specific lot.
Samples are prepared in triplicate and a "total" (buffer addition) and "nonspecific" (300 nM unlabeled L-364,718) set of tubes included in each set of 24 tubes. The remaining 6 sets of triplicates are used either for screening or IC50 determinations. The order of addition is drugs-DMSO, buffer, unlabeled L-364,718, ^3 H-L-364,718, and to start the assay, membranes.
While tubes are incubating a shaking water bath at 37° C. for 30 min Brandel deposit/dispense filters are presoaked in wash buffer. Following the end of the incubation, sets of 24 tubes are rapidly washed with assay buffer as follows. Assay buffer is added to the incubation tubes to the height of the uppermost cross support in the standard Brandel test tube rack and the contents immediately aspirated. This process is repeated twice more, the filter removed, marked and the next set of 24 tubes processed. […]

Row | Structure (SMILES) | IC50
1 | NC(=O)[C@H](CC(=O)O)NC(=O)[C@@H]1Cc2c([nH]c3ccccc23)CN1 [Example 4, N-[(3S)-1,2,3,4-tetrahydro-9H-pyrido[3,4-b]indole-3-carboxyl]-L-aspartic amide] | > 300 µM
2 | CCCCN(CCCC)C(=O)c1ccccc1NC(=O)[C@H]1Cc2c([nH]c3ccccc23)CN1C(=O)OCc1ccccc1 [Example 22] | > 10 µM
3 | CCCCCN(CCCCC)C(=O)[C@H](CC(=O)O)NC(=O)[C@H]1Cc2c([nH]c3ccccc23)CN1C(=O)Nc1cccc(C)c1 [Example 46, N-[(3R)-2-(3-methylphenylcarbamoyl)-1,2,3,4-tetrahydro-9H-pyrido[3,4-b]indole-3-carboxyl]-L-aspartic acid dipentyl amide] | 3.9 µM
4 | Cc1cccc(C(=O)N2Cc3[nH]c4ccccc4c3C[C@@H]2C(=O)N[C@@H](CC(C)C)C(=O)N[C@@H](CC(=O)O)C(N)=O)c1 [Example 54] | > 100 µM
5 | Cc1cccc(NC(=O)N2Cc3[nH]c4ccccc4c3C[C@@H]2C(=O)N[C@H](CC(C)C)C(=O)N[C@@H](CC(=O)O)C(N)=O)c1 [Example 57, N-[(3R)-2-(3-methylphenylcarbamoyl)-1,2,3,4-tetrahydro-9H-pyrido[3,4-b]indole-3-carboxyl]-D-leucyl-L-aspartic acid amide] | 100 µM
6 | CC(C)C[C@H](NC(=O)[C@H]1Cc2c([nH]c3ccccc23)CN1C(=O)c1ccc2ccccc2c1)C(=O)N[C@@H](CC(=O)O)C(N)=O [Example 10, N-[(3R)-2-(2-naphthoyl)-1,2,3,4-tetrahydro-9H-pyrido[3,4-b]indole-3-carboxyl]-L-leucyl-L-aspartic acid amide] | 25 µM
7 | Cc1cccc(NC(=O)N2Cc3[nH]c4ccccc4c3C[C@@H]2C(=O)N[C@H](CC(C)C)C(=O)N[C@H](CC(=O)O)C(N)=O)c1 [Example 45] | 78 µM
8 | CC(C)C[C@H](NC(=O)[C@H]1Cc2c([nH]c3ccccc23)CN1C(=O)Nc1ccc(Cl)cc1)C(=O)N[C@@H](CC(=O)O)C(N)=O [Example 55, N-[(3R)-2-(4-chlorophenylcarbamoyl)-1,2,3,4-tetrahydro-9H-pyrido[3,4-b]indole-3-carboxyl]-L-leucyl-L-asartic acid amide] | 48 µM
9 | CCOC(=O)c1ccc(NC(=O)[C@H]2Cc3c([nH]c4ccccc34)CN2C(=O)Nc2cccc(C)c2)cc1 [Example 43] | 37 µM
10 | CC(C)C[C@H](NC(=O)[C@H]1Cc2c([nH]c3ccccc23)CN1C(=O)Nc1ccccc1)C(=O)N[C@@H](CC(=O)O)C(N)=O [Example 14, N-[(3R)-2-phenylcarbamoyl-1,2,3,4-tetrahydro-9H-pyrido[3,4-b]indole-3-carboxyl]-L-leucyl-L-aspartic acid amide] | > 100 µM
11 | CC(C)C[C@H](NC(=O)[C@H]1Cc2c([nH]c3ccccc23)CN1)C(=O)N[C@@H](CC(=O)OCc1ccccc1)C(N)=O [Example 40] | 41 µM
12 | O=C(Nc1ccccc1C(=O)N1CCCC1)[C@H]1Cc2c([nH]c3ccccc23)CN1C(=O)OCc1ccccc1 [Example 18, pyrrolidine-2-N-[(3R)-2-carbobenzoxy-1,2,3,4-tetrahydro-9H-pyrido-[3,4-b]indole-3-carboxyl]aminobenzamide] | 25 µM
13 | CC(C)C[C@H](NC(=O)[C@H]1Cc2c([nH]c3ccccc23)CN1C(=O)Nc1cc(Cl)cc(Cl)c1)C(=O)N[C@@H](CC(=O)O)C(N)=O [Example 59, N-[(3R)-2-(3,5-dichlorophenylcarbamoyl)-1,2,3,4-tetrahydro-9H-pyrido[3,4-b]indole-3-carboxyl]-L-leucyl-L-aspartic acid amide] | 34 µM
14 | CC(C)C[C@H](NC(=O)[C@H]1Cc2c([nH]c3ccccc23)CN1C(=O)Nc1cccc(C(F)(F)F)c1)C(=O)N[C@@H](CC(=O)O)C(N)=O [Example 63] | 86 µM
15 | CCOC(=O)c1ccc(NC(=O)[C@H]2Cc3c([nH]c4ccccc34)CN2C(=O)OCc2ccccc2)cc1 [Example 15, ethyl 4-N-[(3R)-2-carbobenzoxy-1,2,3,4-tetrahydro-9H-pyrido[3,4-b]indole-3-carboxyl]aminobenzoate] | 9 µM
16 | CC(C)C[C@H](NC(=O)[C@H]1Cc2c([nH]c3ccccc23)CN1C(=O)Nc1cccc(F)c1)C(=O)N[C@@H](CC(=O)O)C(N)=O [Example 65] | > 100 µM
17 | Cc1cccc(NC(=O)N2Cc3[nH]c4ccccc4c3C[C@H]2C(=O)N[C@H](CC(C)C)C(=O)N[C@H](CC(=O)O)C(N)=O)c1 [Example 49] | 35 µM
18 | Cc1cccc(NC(=O)N2Cc3[nH]c4ccccc4c3C[C@@H]2C(=O)N2CCC[C@H]2C(=O)N[C@@H](CC(=O)O)C(N)=O)c1 [Example 44, N-[(3R)-2-(3-methylphenylcarbamoyl)-1,2,3,4-tetrahydro-9H-pyrido[3,4-b]indole-3-carboxyl]-L-prolyl-L-aspartic acid amide] | 98 µM
19 | Cc1cccc(NC(=O)N2Cc3[nH]c4ccccc4c3C[C@@H]2C(=O)N[C@@H](CC(C)C)C(=O)N[C@@H](CC(=O)O)C(N)=O)c1 [Example 11, N-[(3R)-2-(3-methylphenylcarbamoyl)-1,2,3,4-tetrahydro-9H-pyrido[3,4-b]indole-3-carboxyl]-L-leucyl-L-aspartic acid amide] | 34 µM
20 | CCOC(=O)c1ccccc1NC(=O)[C@@H]1Cc2c([nH]c3ccccc23)CN1C(=O)OCc1ccccc1 [Example 23, ethyl 2-N-[(3S)-2-carbobenzoxy-1,2,3,4-tetrahydro-9H-pyrido[3,4-b]indole-3-carboxyl]aminobenzoate] | > 10 µM
21 | CC(C)C[C@H](NC(=O)[C@H]1Cc2c([nH]c3ccccc23)CN1C(=O)Nc1ccc(Cl)c(Cl)c1)C(=O)NCCC(=O)O [Example 27] | 14 µM
22 | Cc1cccc(NC(=O)N2Cc3[nH]c4ccccc4c3C[C@@H]2C(=O)N(C)[C@@H](CC(C)C)C(=O)N[C@@H](CC(=O)O)C(N)=O)c1 [Example 53, N-[(3R)-2-(3-methylphenylcarbamoyl)-1,2,3,4-tetrahydro-9H-pyrido[3,4-b]indole-3-carboxyl]N'-methyl-L-leucine-L-aspartic acid amide] | 29 µM
23 | COc1cccc(NC(=O)N2Cc3[nH]c4ccccc4c3C[C@@H]2C(=O)N[C@@H](CC(C)C)C(=O)N[C@@H](CC(=O)O)C(N)=O)c1 [Example 61] | > 100 µM
24 | CC(C)C[C@H](NC(=O)[C@H]1Cc2c([nH]c3ccccc23)CN1)C(=O)N[C@@H](CC(=O)O)C(N)=O [Example 1, N-[(3R)-1,2,3,4-tetrahydro-9H-pyrido[3,4-b]indole-3-carboxyl]-L-leucyl-L-aspartic acid amide] | > 300 µM
25 | CCCCCN(CCCCC)C(=O)[C@H]1Cc2c([nH]c3ccccc23)CN1C(=O)Nc1cccc(C)c1 [Example 13, (3R)-3-(N,N-dipentylcarbamoyl)-2-(3-methylphenylcarbamoyl)-1,2,3,4-tetrahydro-9H-pyrido[3,4-b]indole] | 10 µM
